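A five-concentration, 48-hour dose response in 96-well plates underlies each endpoint, interpolated linearly between surrounding concentrations. TGI denotes the concentration required for complete inhibition of growth.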
Columns and labels:
Experiment in all cases: DTP human tumour cell line panel, 48 h
MALME-3M melanoma = test system: MALME-3M melanoma
PC-3 prostate = test system: PC-3 prostate
U251 CNS = test system: U251 CNS
NCI/ADR-RES ovarian = test system: NCI/ADR-RES ovarian
HCT-15 colon = test system: HCT-15 colon
SR leukemia = test system: SR leukemia
SK-MEL-5 melanoma = test system: SK-MEL-5 melanoma
ACHN renal = test system: ACHN renal
SK-MEL-28 melanoma = test system: SK-MEL-28 melanoma
HCC-2998 colon = test system: HCC-2998 colon
HCT-116 colon = test system: HCT-116 colon
UACC-257 melanoma = test system: UACC-257 melanoma
CAKI-1 renal = test system: CAKI-1 renal
KM12 colon = test system: KM12 colon

Measured: TGI

Cc1ccc(SCC(CF)OCn2cc(F)c(=O)[nH]c2=O)cc1 (configuration not stated)
> 100 µM: MALME-3M melanoma | PC-3 prostate | U251 CNS | NCI/ADR-RES ovarian | HCT-15 colon | SR leukemia | SK-MEL-5 melanoma | ACHN renal | SK-MEL-28 melanoma | HCC-2998 colon | HCT-116 colon | UACC-257 melanoma | CAKI-1 renal

NC1=NN(c2ccccc2)C2(O)c3ccncc3C3=NN(c4ccccc4)C(=O)C132 (configuration not stated)
> 100 µM: MALME-3M melanoma | PC-3 prostate | U251 CNS | NCI/ADR-RES ovarian | KM12 colon | HCT-15 colon | SR leukemia | SK-MEL-5 melanoma | ACHN renal | SK-MEL-28 melanoma | HCC-2998 colon | HCT-116 colon | UACC-257 melanoma | CAKI-1 renal

O=C1c2c(ccc3c2CCC3)CC12Cc1cc3c(cc1C2)CCC3
> 100 µM: MALME-3M melanoma | PC-3 prostate | U251 CNS | NCI/ADR-RES ovarian | KM12 colon | HCT-15 colon | SR leukemia | SK-MEL-5 melanoma | ACHN renal | SK-MEL-28 melanoma | HCC-2998 colon | HCT-116 colon | UACC-257 melanoma | CAKI-1 renal

CCOC(=O)C1C(c2ccc(OC)cc2)c2c([nH][nH]c2=O)CC1(O)OCC (configuration not stated)
> 100 µM: MALME-3M melanoma | PC-3 prostate | U251 CNS | NCI/ADR-RES ovarian | KM12 colon | HCT-15 colon | SR leukemia | SK-MEL-5 melanoma | ACHN renal | SK-MEL-28 melanoma | HCC-2998 colon | HCT-116 colon | UACC-257 melanoma | CAKI-1 renal

COc1ccc(C2=C(N)c3c(OC)cccc3C2=O)cc1
> 100 µM: MALME-3M melanoma | PC-3 prostate | U251 CNS | NCI/ADR-RES ovarian | KM12 colon | HCT-15 colon | SR leukemia | SK-MEL-28 melanoma | HCC-2998 colon | HCT-116 colon | CAKI-1 renal

COc1ccc2cc(/C=N\NC(=O)Nc3cccc4ccccc34)ccc2c1
> 100 µM: MALME-3M melanoma | PC-3 prostate | NCI/ADR-RES ovarian | KM12 colon | HCT-15 colon | SK-MEL-5 melanoma | SK-MEL-28 melanoma | HCC-2998 colon | UACC-257 melanoma
29.9 µM: U251 CNS
30.5 µM: HCT-116 colon
29.6 µM: SR leukemia
47.6 µM: CAKI-1 renal
76.6 µM: ACHN renal

C=C(Br)CN(C(C)=O)C1CCCCC1
> 100 µM: MALME-3M melanoma | PC-3 prostate | U251 CNS | NCI/ADR-RES ovarian | KM12 colon | HCT-15 colon | SR leukemia | SK-MEL-5 melanoma | ACHN renal | SK-MEL-28 melanoma | HCC-2998 colon | HCT-116 colon | UACC-257 melanoma | CAKI-1 renal

CCCCCCCCC/C=C1\CC(CO)(COC(=O)C2CCCCC2)OC1=O (configuration not stated)
49.3 µM: CAKI-1 renal
27.3 µM: SK-MEL-5 melanoma
42.6 µM: U251 CNS
44.5 µM: HCT-116 colon
30.5 µM: SK-MEL-28 melanoma
> 100 µM: SR leukemia
38.9 µM: KM12 colon
69.1 µM: ACHN renal
42.3 µM: HCC-2998 colon
31.9 µM: MALME-3M melanoma
87.4 µM: UACC-257 melanoma
40.4 µM: PC-3 prostate
38.1 µM: NCI/ADR-RES ovarian
41.7 µM: HCT-15 colon

Cc1occc1C(=S)Nc1ccc(Cl)c(/C=N/OC(C)C)c1
> 59.6 µM: HCC-2998 colon
42.8 µM: HCT-15 colon
41.4 µM: SK-MEL-5 melanoma
53.6 µM: KM12 colon
40.9 µM: CAKI-1 renal
> 53.7 µM: U251 CNS
> 59.9 µM: SR leukemia
> 57.4 µM: MALME-3M melanoma
47.3 µM: PC-3 prostate
> 51.7 µM: HCT-116 colon
> 56.4 µM: SK-MEL-28 melanoma
> 58 µM: NCI/ADR-RES ovarian
47.6 µM: UACC-257 melanoma
51 µM: ACHN renal
